Data reported in ChEMBL document CHEMBL1221210, “A Cdc7 kinase inhibitor restricts initiation of DNA replication and has antitumor activity” (Nat Chem Biol, 2008).

Experiments:
HeLa [1] = assay: Inhibition of DNA synthesis in human HeLa cells assessed as Brd-U uptake at 5 uM after 6 hrs by FACS analysis; format: functional; parameters: scale not given: the % may be the effect or the level left
[2] = Antiproliferative activity against p53 deficient human A2780/E6 cells after 72 hrs by proliferative assay; format: functional, cell-based; details: A2780/E6, 72 h
HeLa [3] = assay: Inhibition of DNA replication in human HeLa cells assessed as interorigin distance between homogenous DNA fibers at 5 uM after 4 hrs by immunofluorescence assay; format: functional
SF-268 [4] = assay: Induction of cell cycle arrest in p53 deficient human SF268 cells assessed as residual DNA synthesis at 5 uM after 24 hrs FACS analysis; format: functional
HeLa [5] = assay: Induction of cell cycle arrest in p53 deficient human HeLa cells assessed as residual DNA synthesis at 5 uM after 24hrs by FACS analysis; format: functional
HCT-15 = assay: Induction of cell cycle arrest in human HCT15 cells expressing p53 gene assessed as accumulation at subG1 phase at 5 uM after 24hrs by FACS analysis; format: functional
HeLa [6] = assay: Inhibition of DNA replication in human HeLa cells assessed as interorigin distance between homogenous DNA fibers at 20 uM after 4 hrs by immunofluorescence assay; format: functional
K562 = assay: Antiproliferative activity against p53 deficient human K562 cells after 72 hrs; format: functional, cell-based; details: K562, 72 h
[7] = Induction of cell cycle arrest in p53 deficient human HCT116-E6 cells assessed as accumulation at subG1 phase at 5 uM after 24hrs by FACS analysis; format: functional
Jurkat [8] = assay: Induction of cell cycle arrest in p53 deficient human Jurkat cells assessed as residual DNA synthesis at 5 uM after 24 hrs by FACS analysis; format: functional
Jurkat [9] = assay: Induction of cell cycle arrest in p53 deficient human Jurkat cells assessed as accumulation at subG1 phase at 10 uM after 24hrs by FACS analysis; format: functional
HeLa [10] = assay: Inhibition of DNA replication in human HeLa cells assessed as increase in replication fork speed per min at 2 uM after 2 hrs by immunofluorescence assay; format: functional
A2780 [11] = assay: Induction of cell cycle arrest in human A2780 cells expressing p53 gene assessed as residual DNA synthesis at 5 uM after 24 hrs by FACS analysis; format: functional
HeLa [12] = assay: Inhibition of DNA replication in human HeLa cells assessed as increase in replication fork speed per min at 5 uM after 4 hrs by immunofluorescence assay; format: functional
U2OS [13] = assay: Induction of cell cycle arrest in human U2OS cells expressing p53 gene assessed as accumulation at subG1 phase at 5 uM after 24hrs by FACS analysis; format: functional
A2780 [14] = assay: Induction of cell cycle arrest in human A2780 cells expressing p53 gene assessed as residual DNA synthesis at 10 uM after 24 hrs by FACS analysis; format: functional
SW480 = assay: Induction of cell cycle arrest in p53 deficient human SW480 cells assessed as accumulation at subG1 phase at 10 uM after 24hrs by FACS analysis; format: functional
A2780 [15] = assay: Induction of cell cycle arrest in human A2780 cells expressing p53 gene assessed as accumulation at subG1 phase at 5 uM after 24hrs by FACS analysis; format: functional
HeLa [16] = assay: Inhibition of DNA replication in human HeLa cells assessed as increase in replication fork speed per min at 20 uM after 4 hrs by immunofluorescence assay; format: functional
NHDF [17] = assay: Induction of cell cycle arrest in NHDF expressing p53 gene assessed as residual DNA synthesis at 5 uM after 24 hrs by FACS analysis; format: cell-based; details: human
SF-268 [18] = assay: Induction of cell cycle arrest in p53 deficient human SF268 cells assessed as residual DNA synthesis at 10 uM after 24 hrs by FACS analysis; format: functional
Jurkat [19] = assay: Antiproliferative activity against p53 deficient human Jurkat cells after 72 hrs by proliferative assay; format: functional, cell-based
HeLa [20] = assay: Inhibition of DNA replication in human HeLa cells assessed as interorigin distance between homogenous DNA fibers at 2 uM after 4 hrs by immunofluorescence assay; format: functional
[21] = Induction of cell cycle arrest in NHDF assessed as accumulation at subG1 phase at 5 uM after 24hrs by propidium-iodine staining based FACS analysis in presence of p53 specific siRNA; details: human
NHDF [22] = assay: Induction of cell cycle arrest in NHDF assessed as accumulation at subG1 phase at 5 uM after 24hrs by propidium-iodine staining based FACS analysis; details: human
[23] = Induction of cell cycle arrest in p53 deficient human A2780/E6 cells assessed as residual DNA synthesis at 10 uM after 24 hrs by FACS analysis; format: functional
HCT-116 = assay: Induction of cell cycle arrest in human HCT116 cells expressing p53 gene assessed as residual DNA synthesis at 10 uM after 24 hrs by FACS analysis; format: functional
HeLa [24] = assay: Inhibition of DNA replication in human HeLa cells assessed as increase in replication fork speed per min at 2 uM after 4 hrs by immunofluorescence assay; format: functional
SF-268 [25] = assay: Induction of cell cycle arrest in p53 deficient human SF268 cells assessed as accumulation at subG1 phase at 10 uM after 24 hrs FACS analysis; format: functional
COLO 205 = assay: Induction of cell cycle arrest in p53 deficient human COLO205 cells assessed as residual DNA synthesis at 5 uM after 24 hrs by FACS analysis; format: functional
A2780 [26] = assay: Induction of cell cycle arrest in human A2780 cells expressing p53 gene assessed as accumulation at subG1 phase at 10 uM after 24 hrs by FACS analysis; format: functional
NHDF [27] = assay: Induction of cell cycle arrest in NHDF expressing p53 gene assessed as accumulation at subG1 phase at 5 uM after 24hrs by FACS analysis; format: cell-based; details: human
OVCAR-8 = assay: Induction of cell cycle arrest in p53 deficient human OVCAR8 cells assessed as accumulation at subG1 phase at 10 uM after 24 hrs by FACS analysis; format: functional
[28] = Inhibition of PDGFR
HeLa [29] = assay: Inhibition of DNA synthesis in human HeLa cells assessed as Brd-U uptake at 5 uM by FACS analysis; format: functional; parameters: scale not given: the % may be the effect or the level left
[30] = Antiproliferative activity against p53 deficient human HCT116/E6 cells after 72 hrs by proliferative assay; format: functional, cell-based; details: HCT116-E6, 72 h
[31] = Induction of cell cycle arrest in p53 deficient human HCT116-E6 cells assessed as residual DNA synthesis at 5 uM after 24 hrs by FACS analysis; format: functional
SF-268 [32] = assay: Induction of cell cycle arrest in p53 deficient human SF268 cells assessed as accumulation at subG1 phase at 5 uM after 24 hrs FACS analysis; format: functional
U2OS [33] = assay: Induction of cell cycle arrest in human U2OS cells expressing p53 gene assessed as residual DNA synthesis at 10 uM after 24 hrs by FACS analysis; format: functional

Question: For O=C1NCCc2[nH]c(-c3ccncc3)cc21, which Activity (HeLa [1]) is on record?
Answer: Its Activity is 26%.

Question: And the IC50 [2]?
Answer: Its IC50 is 1.5 µM.

Question: And the Activity (HeLa [3])?
Answer: Its Activity is 288 kilobase.

Question: And the Activity (SF-268 [4])?
Answer: The Activity was under 3%.

Question: What about the Activity (HeLa [5]) of the same compound?
Answer: Its Activity is under 3%.

Question: And the Activity (HCT-15)?
Answer: The Activity was 3%.

Question: What about the Activity (HeLa [6]) of the same compound?
Answer: The Activity was 287 kilobase.

Question: And the IC50 (K562)?
Answer: The IC50 was 5.87 µM.

Question: What about the Activity [7] of the same compound?
Answer: The Activity was 3%.

Question: And the Activity (Jurkat [8])?
Answer: Its Activity is under 3%.

Question: What about the Activity (Jurkat [9]) of the same compound?
Answer: Its Activity is over 20%.

Question: What about the Activity (HeLa [10]) of the same compound?
Answer: Its Activity is 1.8 kilobase.

Question: What about the Activity (A2780 [11]) of the same compound?
Answer: Its Activity is under 3%.

Question: And the Activity (HeLa [12])?
Answer: The Activity was 2.02 kilobase.

Question: And the Activity (U2OS [13])?
Answer: Its Activity is 3%.

Question: What about the Activity (A2780 [14]) of the same compound?
Answer: Its Activity is under 3%.

Question: And the Activity (SW480)?
Answer: The Activity was over 20%.

Question: And the Activity (A2780 [15])?
Answer: The Activity was over 20%.

Question: What about the Activity (HeLa [16]) of the same compound?
Answer: Its Activity is 2.32 kilobase.

Question: What about the Activity (NHDF [17]) of the same compound?
Answer: Its Activity is under 3%.

Question: And the Activity (SF-268 [18])?
Answer: The Activity was under 3%.

Question: What about the IC50 (Jurkat [19]) of the same compound?
Answer: Its IC50 is 3.2 µM.

Question: And the Activity (HeLa [20])?
Answer: Its Activity is 236 kilobase.

Question: And the Activity [21]?
Answer: Its Activity is 6.8%.

Question: And the Activity (NHDF [22])?
Answer: The Activity was 1.6%.

Question: What about the Activity [23] of the same compound?
Answer: The Activity was under 3%.

Question: What about the Activity (HCT-116) of the same compound?
Answer: The Activity was under 3%.

Question: And the Activity (HeLa [24])?
Answer: Its Activity is 1.81 kilobase.

Question: And the Activity (SF-268 [25])?
Answer: The Activity was 3%.

Question: What about the Activity (COLO 205) of the same compound?
Answer: Its Activity is under 3%.

Question: What about the Activity (A2780 [26]) of the same compound?
Answer: Its Activity is over 20%.

Question: What about the Activity (NHDF [27]) of the same compound?
Answer: Its Activity is under 3%.

Question: And the Activity (OVCAR-8)?
Answer: The Activity was 3%.

Question: What about the IC50 [28] of the same compound?
Answer: Its IC50 is over 10 µM.

Question: What about the Activity (HeLa [29]) of the same compound?
Answer: The Activity was 37%.

Question: What about the IC50 [30] of the same compound?
Answer: The IC50 was 1.48 µM.

Question: And the Activity [31]?
Answer: The Activity was 3%.

Question: What about the Activity (SF-268 [32]) of the same compound?
Answer: Its Activity is 3%.

Question: What about the Activity (U2OS [33]) of the same compound?
Answer: The Activity was under 3%.
